Measurements: patent US8691829B2, “Treatment of liver disorders with PI3K inhibitors” (Gilead Calistoga LLC, priority 2009, dated 2014)

Tests used:
PI3Kβ = PI3Kβ (Homo sapiens (Human), UniProt P42338); experiment: Selectivity of selected PI3K inhibitors (β/δ); format: biochemical; conditions: ratio PI3Kβ relative to PI3Kδ
Source text: (§1) The compounds of formula (3) are readily prepared from available starting material using methods that are known in the art. […] Scheme A in that application provides a route by which the thienopyrimidinone portions of compounds of formula (2a) can be prepared, and Schemes B-G provide routes by which the thienopyrimidinone portions of compounds of formula (2b) can be prepared. […] These references also provide methods for determining the activity of these compounds as inhibitors of PI3Kδ; thus those methods are known in the art.

PI3Kδ = PI3Kδ (Homo sapiens (Human), UniProt O00329); experiment: Activity of selected PI3K inhibitors, Ki (PI3Kδ); format: biochemical
Source text: as §1

PI3Kγ = PI3Kγ (Homo sapiens (Human), UniProt P48736); experiment: Selectivity of selected PI3K inhibitors (γ/δ); format: biochemical; conditions: ratio PI3Kγ relative to PI3Kδ
Source text: as §1

PI3Kα = PI3Kα (Homo sapiens (Human), UniProt P42336); experiment: Selectivity of selected PI3K inhibitors (α/δ); format: biochemical; conditions: ratio PI3Kα relative to PI3Kδ
Source text: as §1

hepatocytes = hepatocytes exposed to conditions that generate reactive oxygen species; Kohli et al. 2007; cited from earlier work
steatosis development = conditions: diet-induced p85 expression and steatosis; Kohli et al. 2007; cited from earlier work

Chain of PI3Kβ (P42338 whole entry, species assumed): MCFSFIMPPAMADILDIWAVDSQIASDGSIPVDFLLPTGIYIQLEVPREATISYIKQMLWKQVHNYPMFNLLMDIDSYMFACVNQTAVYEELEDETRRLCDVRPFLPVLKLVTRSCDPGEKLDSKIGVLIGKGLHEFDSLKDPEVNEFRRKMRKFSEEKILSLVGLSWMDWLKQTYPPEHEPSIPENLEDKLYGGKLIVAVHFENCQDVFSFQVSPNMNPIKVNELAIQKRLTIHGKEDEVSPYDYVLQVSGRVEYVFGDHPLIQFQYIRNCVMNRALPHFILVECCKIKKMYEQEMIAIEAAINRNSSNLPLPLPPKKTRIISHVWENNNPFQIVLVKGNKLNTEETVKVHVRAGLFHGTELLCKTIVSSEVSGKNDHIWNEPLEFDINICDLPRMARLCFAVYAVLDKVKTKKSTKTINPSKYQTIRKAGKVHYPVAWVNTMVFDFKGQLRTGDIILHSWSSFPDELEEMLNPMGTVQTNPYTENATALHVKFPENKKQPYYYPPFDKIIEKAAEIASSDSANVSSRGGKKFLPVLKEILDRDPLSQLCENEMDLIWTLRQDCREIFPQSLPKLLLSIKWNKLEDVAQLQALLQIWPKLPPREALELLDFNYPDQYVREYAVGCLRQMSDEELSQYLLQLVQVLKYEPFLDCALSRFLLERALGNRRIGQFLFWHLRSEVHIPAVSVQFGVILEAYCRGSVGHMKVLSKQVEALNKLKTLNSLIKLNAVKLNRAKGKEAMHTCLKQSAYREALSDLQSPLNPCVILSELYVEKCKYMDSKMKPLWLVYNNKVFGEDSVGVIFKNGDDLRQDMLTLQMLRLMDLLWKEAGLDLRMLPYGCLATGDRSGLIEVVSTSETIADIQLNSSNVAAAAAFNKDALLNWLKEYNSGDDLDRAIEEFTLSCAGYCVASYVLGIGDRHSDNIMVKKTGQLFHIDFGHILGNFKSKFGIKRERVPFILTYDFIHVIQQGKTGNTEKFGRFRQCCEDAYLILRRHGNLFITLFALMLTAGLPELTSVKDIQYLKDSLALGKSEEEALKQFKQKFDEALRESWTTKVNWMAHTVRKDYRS
Chain of PI3Kβ (P27986 whole entry partner, species assumed): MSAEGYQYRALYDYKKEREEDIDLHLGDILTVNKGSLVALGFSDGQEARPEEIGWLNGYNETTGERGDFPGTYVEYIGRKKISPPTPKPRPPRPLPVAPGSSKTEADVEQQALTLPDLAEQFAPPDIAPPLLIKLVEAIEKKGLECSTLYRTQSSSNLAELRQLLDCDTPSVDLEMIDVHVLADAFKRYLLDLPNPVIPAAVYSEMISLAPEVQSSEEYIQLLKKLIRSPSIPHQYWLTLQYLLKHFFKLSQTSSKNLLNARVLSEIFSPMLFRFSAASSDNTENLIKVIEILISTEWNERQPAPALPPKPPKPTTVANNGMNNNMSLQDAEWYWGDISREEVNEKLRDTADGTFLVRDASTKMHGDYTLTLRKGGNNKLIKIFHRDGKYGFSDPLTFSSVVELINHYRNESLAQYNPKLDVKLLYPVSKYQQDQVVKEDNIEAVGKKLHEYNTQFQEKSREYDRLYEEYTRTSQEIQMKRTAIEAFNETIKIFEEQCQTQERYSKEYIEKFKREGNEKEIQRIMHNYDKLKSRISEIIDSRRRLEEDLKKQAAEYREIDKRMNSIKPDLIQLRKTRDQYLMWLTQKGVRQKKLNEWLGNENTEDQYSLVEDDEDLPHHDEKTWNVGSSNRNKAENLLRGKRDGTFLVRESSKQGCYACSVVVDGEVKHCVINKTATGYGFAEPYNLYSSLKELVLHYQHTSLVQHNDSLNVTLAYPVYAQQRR
Chain of PI3Kγ (P48736 whole entry, species assumed): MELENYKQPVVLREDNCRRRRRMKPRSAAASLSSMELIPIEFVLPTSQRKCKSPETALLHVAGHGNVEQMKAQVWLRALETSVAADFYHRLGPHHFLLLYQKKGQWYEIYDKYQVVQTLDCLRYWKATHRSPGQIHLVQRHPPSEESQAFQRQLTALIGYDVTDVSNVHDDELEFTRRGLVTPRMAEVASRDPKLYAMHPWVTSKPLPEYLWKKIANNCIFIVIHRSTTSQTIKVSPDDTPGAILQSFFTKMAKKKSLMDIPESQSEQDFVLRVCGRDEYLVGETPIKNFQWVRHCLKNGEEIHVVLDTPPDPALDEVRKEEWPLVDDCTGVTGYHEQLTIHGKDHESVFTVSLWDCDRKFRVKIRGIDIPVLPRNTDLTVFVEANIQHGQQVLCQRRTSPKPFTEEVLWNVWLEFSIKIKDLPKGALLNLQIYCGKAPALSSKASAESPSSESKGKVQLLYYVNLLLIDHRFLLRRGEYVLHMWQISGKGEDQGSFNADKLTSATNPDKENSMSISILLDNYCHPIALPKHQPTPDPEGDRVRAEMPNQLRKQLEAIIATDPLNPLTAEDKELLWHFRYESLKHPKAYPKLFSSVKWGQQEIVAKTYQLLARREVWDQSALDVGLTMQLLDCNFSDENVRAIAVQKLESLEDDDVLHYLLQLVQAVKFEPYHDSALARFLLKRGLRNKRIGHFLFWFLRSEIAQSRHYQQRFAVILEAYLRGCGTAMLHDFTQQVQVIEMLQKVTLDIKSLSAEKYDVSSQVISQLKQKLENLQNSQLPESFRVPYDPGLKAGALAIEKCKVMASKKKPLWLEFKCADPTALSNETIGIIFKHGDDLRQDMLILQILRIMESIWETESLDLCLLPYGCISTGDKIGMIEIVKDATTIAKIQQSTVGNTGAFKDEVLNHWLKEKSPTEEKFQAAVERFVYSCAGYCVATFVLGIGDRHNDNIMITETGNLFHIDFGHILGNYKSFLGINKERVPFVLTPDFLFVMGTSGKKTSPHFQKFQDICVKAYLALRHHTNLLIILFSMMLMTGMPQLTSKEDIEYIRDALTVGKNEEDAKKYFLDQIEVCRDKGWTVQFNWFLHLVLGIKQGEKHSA
Chain of PI3Kα (P42336 whole entry, species assumed): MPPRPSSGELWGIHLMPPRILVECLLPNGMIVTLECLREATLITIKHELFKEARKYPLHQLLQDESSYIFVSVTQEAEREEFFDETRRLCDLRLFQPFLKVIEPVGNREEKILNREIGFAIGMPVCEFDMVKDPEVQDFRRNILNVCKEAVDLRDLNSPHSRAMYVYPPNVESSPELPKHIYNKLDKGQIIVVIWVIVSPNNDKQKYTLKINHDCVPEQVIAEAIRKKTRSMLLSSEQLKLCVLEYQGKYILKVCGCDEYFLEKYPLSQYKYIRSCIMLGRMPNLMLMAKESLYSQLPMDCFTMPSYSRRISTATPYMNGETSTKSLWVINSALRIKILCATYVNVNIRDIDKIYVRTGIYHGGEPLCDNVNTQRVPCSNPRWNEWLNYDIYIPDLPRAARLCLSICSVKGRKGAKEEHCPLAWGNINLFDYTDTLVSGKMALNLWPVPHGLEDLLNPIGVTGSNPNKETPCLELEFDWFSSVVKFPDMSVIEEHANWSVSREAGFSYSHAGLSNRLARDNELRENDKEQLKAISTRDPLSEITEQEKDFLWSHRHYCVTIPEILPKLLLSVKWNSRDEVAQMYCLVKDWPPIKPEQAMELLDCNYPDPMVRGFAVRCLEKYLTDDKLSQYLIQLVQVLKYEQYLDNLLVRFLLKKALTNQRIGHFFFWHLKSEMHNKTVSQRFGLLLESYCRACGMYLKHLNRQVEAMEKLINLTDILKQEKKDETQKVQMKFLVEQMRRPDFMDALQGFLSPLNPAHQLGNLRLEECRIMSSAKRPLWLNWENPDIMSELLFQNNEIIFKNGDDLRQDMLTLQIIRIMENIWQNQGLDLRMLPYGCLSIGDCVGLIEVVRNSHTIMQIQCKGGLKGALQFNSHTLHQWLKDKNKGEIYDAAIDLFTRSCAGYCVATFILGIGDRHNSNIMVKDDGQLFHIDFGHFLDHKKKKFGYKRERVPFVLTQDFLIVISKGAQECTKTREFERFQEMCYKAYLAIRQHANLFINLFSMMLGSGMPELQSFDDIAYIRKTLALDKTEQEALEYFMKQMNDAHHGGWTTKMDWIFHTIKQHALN
Chain of PI3Kα (P27986 whole entry partner, species assumed): as the sequence (P27986 whole entry partner, species assumed) above
Chain of PI3Kδ (O00329 whole entry, species assumed): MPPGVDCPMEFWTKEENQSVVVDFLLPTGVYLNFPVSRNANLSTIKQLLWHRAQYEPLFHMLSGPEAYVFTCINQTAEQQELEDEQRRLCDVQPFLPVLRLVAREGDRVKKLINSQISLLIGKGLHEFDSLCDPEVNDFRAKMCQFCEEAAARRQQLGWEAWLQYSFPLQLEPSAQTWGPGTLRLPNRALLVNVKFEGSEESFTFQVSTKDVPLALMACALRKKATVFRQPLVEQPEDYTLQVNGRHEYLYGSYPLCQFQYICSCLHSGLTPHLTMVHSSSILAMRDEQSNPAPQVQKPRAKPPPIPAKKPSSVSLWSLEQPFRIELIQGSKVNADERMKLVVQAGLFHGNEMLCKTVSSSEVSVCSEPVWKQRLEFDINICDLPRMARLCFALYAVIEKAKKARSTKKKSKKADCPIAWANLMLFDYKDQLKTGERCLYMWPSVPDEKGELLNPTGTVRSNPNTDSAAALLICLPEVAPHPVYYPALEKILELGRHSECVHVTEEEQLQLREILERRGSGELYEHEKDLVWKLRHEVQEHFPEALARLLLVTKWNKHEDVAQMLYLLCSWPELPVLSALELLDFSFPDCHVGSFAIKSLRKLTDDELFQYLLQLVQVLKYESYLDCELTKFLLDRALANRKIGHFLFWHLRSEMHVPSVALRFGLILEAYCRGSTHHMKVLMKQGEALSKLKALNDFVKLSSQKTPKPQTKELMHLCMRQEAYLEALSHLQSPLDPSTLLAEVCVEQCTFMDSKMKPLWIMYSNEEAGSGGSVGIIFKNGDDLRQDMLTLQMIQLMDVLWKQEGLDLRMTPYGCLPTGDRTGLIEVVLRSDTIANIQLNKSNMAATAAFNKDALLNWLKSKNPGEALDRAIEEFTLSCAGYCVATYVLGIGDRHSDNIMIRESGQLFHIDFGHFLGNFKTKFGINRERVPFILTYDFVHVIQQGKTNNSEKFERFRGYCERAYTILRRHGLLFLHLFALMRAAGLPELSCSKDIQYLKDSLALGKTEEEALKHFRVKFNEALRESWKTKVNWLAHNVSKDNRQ
Chain of PI3Kδ (P27986 whole entry partner, species assumed): as the sequence (P27986 whole entry partner, species assumed) above

Compound | Selectivity (β/δ) (PI3Kβ) | Ki (PI3Kδ) [nM] | Selectivity (γ/δ) (PI3Kγ) | Selectivity (α/δ) (PI3Kα) | steatosis (accumulation of fat) in hepatocytes (hepatocytes) | steatosis development (steatosis development)
CC(c1nc2ccsc2c(=O)n1-c1ccccc1)n1cnc2c(N)ncnc21 (stereo not drawn) [3d] | 126 | 40 | 187 | 1447 |  | 
CC(Nc1ncnc2[nH]cnc12)c1nc2ccsc2c(=O)n1-c1ccccc1 (stereo not drawn) [3e] | 123 | 6 | 28 | 528 |  | 
Cc1cccc2nc(C(C)n3cnc4c(N)ncnc43)n(-c3ccccc3)c(=O)c12 (stereo not drawn) [4a] | 119 | 7 | 61 | 2963 |  | 
Cc1cccc2nc(C(C)Nc3ncnc4[nH]cnc34)n(-c3ccccc3)c(=O)c12 (stereo not drawn) [4b] | 29 | 5 | 12 | 132 |  | 
O=c1cc(N2CCOCC2)oc2c(-c3ccccc3)cccc12 [LY294002] |  |  |  |  | can be inhibited | blocked steatosis development
